Measured values: patent publication US5385908A, “Hindered esters of rapamycin” (American Home Products Corporation, priority 1993, dated 1995)
Structures can show the parent of a compound that is named as a salt. Where two headings read alike, the source gives them in different places.

Legend:
[1] = tested on: immune mediated inflammation (uninjected hind paw); assay: adjuvant arthritis standard pharmacological test procedure; format: in vivo, male inbread Wistar Lewis rats; settings: for Percent change in adjuvant arthritis versus control: 2 mg/kg oral
Description: (§1) Immunosuppressive activity for representative compounds of this invention was evaluated in an in vitro standard pharmacological test procedure to measure lymphocyte proliferation (LAF) and in three in vivo standard pharmacological test procedures. The pinch skin graft test procedure measures the immunosuppressive activity of the compound tested as well as the ability of the compound tested to inhibit or treat transplant rejection. The adjuvant arthritis standard pharmacological test procedure, which measures the ability of the compound tested to inhibit immune mediated inflammation. The adjuvant arthritis test procedure is a standard pharmacological test procedure for rheumatoid arthritis. Representative compounds of this invention were also evaluated in a heart allograft standard pharmacological test procedure which measures immunosuppressive activity of the compound tested as well as the ability of the compound tested to inhibit or treat transplant rejection. The procedures for these standard pharmacological test procedures are provided below.
The adjuvant arthritis standard pharmacological test procedure measures the ability of test compounds to prevent immune mediated inflammation and inhibit or treat rheumatoid arthritis. The following briefly describes the test procedure used. A group of rats (male inbread Wistar Lewis rats) are pre-treated with the compound to be tested (1 h prior to antigen) and then injected with Freud's Complete Adjuvant (FCA) in the right hind paw to induce arthritis. The rats are then orally dosed on a Monday, Wednesday, Friday schedule from day 0-14 for a total of 7 doses. Both hind paws are measured on days 16, 23, and 30. The difference in paw volume (mL) from day 16 to day 0 is determined and a percent change from control is obtained. […] The right hind paw inflammation, on the other hand, is caused by nonspecific inflammation. Compounds were tested at a dose of 2 mg/kg.

[2] = tested on: cells from the thymus of normal BALB/c mice (lymphocyte proliferation); assay: comitogen-induced thymocyte proliferation procedure (LAF); format: cell-based; settings: read-out: LAF IC50
Description: as §1
The comitogen-induced thymocyte proliferation procedure (LAF) was used as an in vitro measure of the immunosuppressive effects of representative compounds. Briefly, cells from the thymus of normal BALB/c mice are cultured for 72 hours with PHA and IL-1 and pulsed with tritiated thymidine during the last six hours. Cells are cultured with and without various concentrations of rapamycin, cyclosporin A, or test compound. Cells are harvested and incorporated radioactivity is determined. Inhibition of lymphoproliferation is assessed as percent change in counts per minute from non-drug treated controls. For each compound evaluated, rapamycin was also evaluated for the purpose of comparison. An IC50 was obtained for each test compound as well as for rapamycin. […] The results obtained are provided as an IC50.

pinch skin graft = pinch skin graft survival test procedure; format: in vivo, male BALB/c donors transplanted to male C3H(H-2K) recipients; settings: 4 mg/kg, intraperitoneally or orally; mean ± S.D.; untreated rejected within 6-7 days
Description: as §1
Representative compounds of this invention were also evaluated in an in vivo test procedure designed to determine the survival time of pinch skin graft from male BALB/c donors transplanted to male C3 H(H-2K) recipients. The method is adapted from Billingham R. E. and Medawar P. B., J. Exp. Biol. 28:385-402, (1951 ). Briefly, a pinch skin graft from the donor was grafted on the dorsum of the recipient as a allograft, and an isograft was used as control in the same region. The recipients were treated with either varying concentrations of test compounds intraperitoneally or orally. Rapamycin was used as a test control. Untreated recipients serve as rejection control. The graft was monitored daily and observations were recorded until the graft became dry and formed a blackened scab. This was considered as the rejection day. The mean graft survival time (number of days±S.D.) of the drug treatment group was compared with the control group. […] Results are expressed as the mean survival time in days. Untreated (control) pinch skin grafts are usually rejected within 6-7 days. Compounds were tested using a dose of 4 mg/kg.

heart allograft = assay: heterotropic heart allograft standard pharmacological test procedure; format: in vivo, BN rat neonate donors, male Lewis rat recipients; settings: untreated rejected in about 9-10 days
Description: as §1
The ability of the compounds of this invention to induce immunosuppression and inhibit or treat transplantation rejection was evaluated in a heterotropic heart allograft standard pharmacological test procedure that emulates transplantation rejection that occurs in humans. The following briefly describes the procedure that was used. […]

Candida albicans = settings: in vitro and in vivo; cited from earlier work
[3] = tested on: experimental allergic encephalomyelitis; settings: model for multiple sclerosis; cited from earlier work
IgE-like antibodies = settings: in vivo; cited from earlier work
[4] = Mus musculus, Lymphocyte, PHA and IL-1, 72 hours culture, tritiated thymidine last six hours

Structure (SMILES): CO[C@H]1C[C@@H]2CC[C@@H](C)[C@@](O)(O2)C(=O)C(=O)N2CCCC[C@H]2C(=O)O[C@H]([C@H](C)C[C@@H]2CC[C@@H](OC(=O)C(C)(C)Cc3cccnc3)[C@H](OC)C2)CC(=O)[C@H](C)/C=C(\C)[C@@H](O)[C@@H](OC)C(=O)[C@H](C)C[C@H](C)/C=C/C=C/C=C/1C [Example 2, Rapamycin 42-ester with 2,2-dimethyl-3-(3-pyridinyl) propionic acid]
- Percent change in adjuvant arthritis versus control ([1]; day 16): -62%
- IC50 [2, 4]: 830 pM
- Skin graft survival (mean survival time) (pinch skin graft): 13.6 ± 0.6 days
- Heart allograft (mean graft survival time) (heart allograft; i.p., 300 μg/day): 29 days
- Heart allograft (mean graft survival time) (heart allograft; p.o.): 11.5 days

Structure (SMILES): CO[C@H]1C[C@@H]2CC[C@@H](C)[C@@](O)(O2)C(=O)C(=O)N2CCCC[C@H]2C(=O)O[C@H]([C@H](C)C[C@@H]2CC[C@@H](OC(=O)C(C)(C)Cc3cccnc3)[C@H](OC)C2)CC(=O)[C@H](C)/C=C(\C)[C@@H](O)[C@@H](OC)C(=O)[C@H](C)C[C@H](C)/C=C/C=C/C=C/1C [Example 3, Rapamycin 42-ester with 2,2-dimethyl-3-(3-pyridinyl) propionic acid hydrochloride salt]
- Percent change in adjuvant arthritis versus control ([1]; day 16, hydrochloride salt): -73%
- IC50 ([2]; PHA and IL-1, 72 hours culture, tritiated thymidine last six hours, hydrochloride salt): 1030 pM

Structure (SMILES): CO[C@H]1C[C@@H]2CC[C@@H](C)[C@@](O)(O2)C(=O)C(=O)N2CCCC[C@H]2C(=O)O[C@H]([C@H](C)C[C@@H]2CC[C@@H](OC(=O)C(C)(C)CCc3ccccn3)[C@H](OC)C2)CC(=O)[C@H](C)/C=C(\C)[C@@H](O)[C@@H](OC)C(=O)[C@H](C)C[C@H](C)/C=C/C=C/C=C/1C [Example 5, Rapamycin 42-ester with 2,2-dimethyl-4-(2-pyridinyl) butyric acid]
- Percent change in adjuvant arthritis versus control ([1]; day 16): -75%
- IC50 [2, 4]: 580 pM

Structure (SMILES): CO[C@H]1C[C@@H]2CC[C@@H](C)[C@@](O)(O2)C(=O)C(=O)N2CCCC[C@H]2C(=O)O[C@H]([C@H](C)C[C@@H]2CC[C@@H](OC(=O)C(C)(C)CCCc3cccnc3)[C@H](OC)C2)CC(=O)[C@H](C)/C=C(\C)[C@@H](O)[C@@H](OC)C(=O)[C@H](C)C[C@H](C)/C=C/C=C/C=C/1C [Example 6, Rapamycin 42-ester with 2,2-dimethyl-5-(3-pyridinyl) pentanoic acid]
- Percent change in adjuvant arthritis versus control ([1]; day 16): -45%
- IC50 [2, 4]: 3000 pM
- Skin graft survival (mean survival time) (pinch skin graft): 12.50 ± 0.55 days

Structure (SMILES): CO[C@H]1C[C@@H]2CC[C@@H](C)[C@@](O)(O2)C(=O)C(=O)N2CCCC[C@H]2C(=O)O[C@H]([C@H](C)C[C@@H]2CC[C@@H](OC(=O)C(C)(C)Cc3ccccn3)[C@H](OC)C2)CC(=O)[C@H](C)/C=C(\C)[C@@H](O)[C@@H](OC)C(=O)[C@H](C)C[C@H](C)/C=C/C=C/C=C/1C [Example 7, Rapamycin 42-ester with 2,2-dimethyl-3-(2-pyridinyl) propionic acid]
- Percent change in adjuvant arthritis versus control ([1]; day 16): -78%
- IC50 [2, 4]: 600 pM

Structure (SMILES): CO[C@H]1C[C@@H]2CC[C@@H](C)[C@@](O)(O2)C(=O)C(=O)N2CCCC[C@H]2C(=O)O[C@H]([C@H](C)C[C@@H]2CC[C@@H](OC(=O)C(C)(C)CCc3cccnc3)[C@H](OC)C2)CC(=O)[C@H](C)/C=C(\C)[C@@H](O)[C@@H](OC)C(=O)[C@H](C)C[C@H](C)/C=C/C=C/C=C/1C [Example 8, Rapamycin 42-ester with 2,2-dimethyl-4-(3-pyridinyl) butyric acid]
- Percent change in adjuvant arthritis versus control ([1]; day 16): -50%
- IC50 [2, 4]: 1200 pM

Structure (SMILES): CO[C@H]1C[C@@H]2CC[C@@H](C)[C@@](O)(O2)C(=O)C(=O)N2CCCC[C@H]2C(=O)O[C@H]([C@H](C)C[C@@H]2CC[C@@H](OC(=O)C(C)(C)Cc3ccncc3)[C@H](OC)C2)CC(=O)[C@H](C)/C=C(\C)[C@@H](O)[C@@H](OC)C(=O)[C@H](C)C[C@H](C)/C=C/C=C/C=C/1C [Example 9, Rapamycin 42-ester with 2,2-dimethyl-3-(4-pyridinyl) propionic acid]
- Percent change in adjuvant arthritis versus control ([1]; day 16): -73%
- IC50 [2, 4]: 840 pM
- Skin graft survival (mean survival time) (pinch skin graft): 11.17 ± 1.47 days

Structure (SMILES): CO[C@H]1C[C@@H]2CC[C@@H](C)[C@@](O)(O2)C(=O)C(=O)N2CCCC[C@H]2C(=O)O[C@H]([C@H](C)C[C@@H]2CC[C@@H](OC(=O)C3(C)CCN(C)CC3)[C@H](OC)C2)CC(=O)[C@H](C)/C=C(\C)[C@@H](O)[C@@H](OC)C(=O)[C@H](C)C[C@H](C)/C=C/C=C/C=C/1C [Example 12, Rapamycin 42-ester with 1,4-dimethylpiperidine-4-carboxylic acid]
- Percent change in adjuvant arthritis versus control ([1]; day 16): -75%
- IC50 [2, 4]: 580 pM
- Skin graft survival (mean survival time) (pinch skin graft): 12.83 ± 1.47 days

Structure (SMILES): CO[C@H]1C[C@@H]2CC[C@@H](C)[C@@](O)(O2)C(=O)C(=O)N2CCCC[C@H]2C(=O)O[C@H]([C@H](C)C[C@@H]2CC[C@@H](OC(=O)C3(C)CCCCN3C(=O)c3ccccc3)[C@H](OC)C2)CC(=O)[C@H](C)/C=C(\C)[C@@H](O)[C@@H](OC)C(=O)[C@H](C)C[C@H](C)/C=C/C=C/C=C/1C (stereo partly shown) [Example 13, Rapamycin 42-ester with 1-benzoyl-2-methyl-piperidine-2-carboxylic acid]
- IC50 [2, 4]: 2900 pM

Structure (SMILES): CO[C@H]1C[C@@H]2CC[C@@H](C)[C@@](O)(O2)C(=O)C(=O)N2CCCC[C@H]2C(=O)O[C@H]([C@H](C)C[C@@H]2CC[C@@H](O)[C@H](OC)C2)CC(=O)[C@H](C)/C=C(\C)[C@@H](O)[C@@H](OC)C(=O)[C@H](C)C[C@H](C)/C=C/C=C/C=C/1C [rapamycin]
- less immune induced inflammation than control rats ([1]; rapamycin treated rats, day 16): 70-90%
- antifungal activity (in words) (Candida albicans): antifungal activity, particularly against Candida albicans, both in vitro and in vivo
- effect in experimental allergic encephalomyelitis model (in words) [3]: effective in the experimental allergic encephalomyelitis model
- IC50 ([2]; Mus musculus, Lymphocyte): 500 to 1900 pM
- inhibition of formation of IgE-like antibodies (in words) (IgE-like antibodies): effectively inhibited the formation of IgE-like antibodies
